The values below are quoted from earlier work in US20240066021A1, “METHODS FOR OPTIMIZING CFTR-MODULATOR THERAPY” (Children's Hospital Medical Center, priority 2021, published 2024).

Like-named read-outs stand apart in the source and are kept apart here.

Some targets named below: NR2A/NR3A (Homo sapiens, UniProt Q12879); NR2A (Homo sapiens, UniProt Q12879); SCN2A (Homo sapiens, UniProt Q99250).
For another data set, the target named is T1, Guanylatecyclase A(NPR1) (Homo sapiens, UniProt P16066).
T1 sequence (P16066 33-1061): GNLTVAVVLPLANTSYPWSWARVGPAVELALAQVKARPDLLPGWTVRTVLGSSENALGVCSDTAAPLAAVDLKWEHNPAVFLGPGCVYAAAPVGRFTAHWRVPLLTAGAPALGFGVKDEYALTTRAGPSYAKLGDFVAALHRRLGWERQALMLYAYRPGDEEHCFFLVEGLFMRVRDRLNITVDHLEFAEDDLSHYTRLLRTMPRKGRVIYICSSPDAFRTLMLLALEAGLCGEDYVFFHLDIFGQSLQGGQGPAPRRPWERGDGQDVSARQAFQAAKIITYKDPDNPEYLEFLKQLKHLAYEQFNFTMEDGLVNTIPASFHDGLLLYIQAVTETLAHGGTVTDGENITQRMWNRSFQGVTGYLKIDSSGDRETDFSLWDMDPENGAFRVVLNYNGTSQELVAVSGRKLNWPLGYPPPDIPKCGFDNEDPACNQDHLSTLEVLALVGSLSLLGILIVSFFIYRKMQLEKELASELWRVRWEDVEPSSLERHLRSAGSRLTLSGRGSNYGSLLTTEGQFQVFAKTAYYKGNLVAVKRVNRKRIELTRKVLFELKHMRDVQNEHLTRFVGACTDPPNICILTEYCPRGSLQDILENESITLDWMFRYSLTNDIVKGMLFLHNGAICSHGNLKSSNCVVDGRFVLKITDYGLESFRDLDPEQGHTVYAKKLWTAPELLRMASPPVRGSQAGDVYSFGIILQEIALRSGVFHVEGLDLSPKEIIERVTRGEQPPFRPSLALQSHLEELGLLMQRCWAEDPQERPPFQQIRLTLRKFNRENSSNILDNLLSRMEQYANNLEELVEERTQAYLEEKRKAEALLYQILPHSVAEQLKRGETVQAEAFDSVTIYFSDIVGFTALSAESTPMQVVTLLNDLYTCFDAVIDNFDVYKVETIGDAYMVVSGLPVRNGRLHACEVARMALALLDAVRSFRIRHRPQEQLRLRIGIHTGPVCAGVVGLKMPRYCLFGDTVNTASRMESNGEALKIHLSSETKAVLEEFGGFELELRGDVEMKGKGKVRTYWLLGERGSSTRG
Conditions: Target Guanylatecyclase A(NPR1), Gene Symbol NPR1.

Another data set concerns the target T2, IKK-beta (Homo sapiens, UniProt O14920).
T2 sequence (O14920 1-756): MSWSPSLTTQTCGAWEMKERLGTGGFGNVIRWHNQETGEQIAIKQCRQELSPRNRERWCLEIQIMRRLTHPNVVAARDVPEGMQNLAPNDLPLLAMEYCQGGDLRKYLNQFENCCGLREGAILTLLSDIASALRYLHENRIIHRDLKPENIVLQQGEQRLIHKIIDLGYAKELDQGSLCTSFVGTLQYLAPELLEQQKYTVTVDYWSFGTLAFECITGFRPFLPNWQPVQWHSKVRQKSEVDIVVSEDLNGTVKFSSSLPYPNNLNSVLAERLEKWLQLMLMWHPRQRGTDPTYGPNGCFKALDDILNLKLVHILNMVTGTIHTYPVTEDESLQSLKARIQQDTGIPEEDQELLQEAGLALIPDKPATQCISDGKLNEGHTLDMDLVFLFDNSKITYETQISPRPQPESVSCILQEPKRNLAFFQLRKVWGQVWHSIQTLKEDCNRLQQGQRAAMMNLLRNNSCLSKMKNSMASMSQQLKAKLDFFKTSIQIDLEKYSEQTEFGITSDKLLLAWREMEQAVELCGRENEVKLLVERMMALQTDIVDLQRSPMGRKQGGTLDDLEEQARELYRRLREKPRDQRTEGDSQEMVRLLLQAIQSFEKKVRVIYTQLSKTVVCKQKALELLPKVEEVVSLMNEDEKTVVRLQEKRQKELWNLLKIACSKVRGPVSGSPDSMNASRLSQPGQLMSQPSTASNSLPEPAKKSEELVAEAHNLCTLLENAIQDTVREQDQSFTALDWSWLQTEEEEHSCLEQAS
To be noted: Target IKK-beta, Gene Symbol IKBKB.

In a further data set the target is T3, UFO (Homo sapiens, UniProt P30530).
T3 sequence (P30530 26-894): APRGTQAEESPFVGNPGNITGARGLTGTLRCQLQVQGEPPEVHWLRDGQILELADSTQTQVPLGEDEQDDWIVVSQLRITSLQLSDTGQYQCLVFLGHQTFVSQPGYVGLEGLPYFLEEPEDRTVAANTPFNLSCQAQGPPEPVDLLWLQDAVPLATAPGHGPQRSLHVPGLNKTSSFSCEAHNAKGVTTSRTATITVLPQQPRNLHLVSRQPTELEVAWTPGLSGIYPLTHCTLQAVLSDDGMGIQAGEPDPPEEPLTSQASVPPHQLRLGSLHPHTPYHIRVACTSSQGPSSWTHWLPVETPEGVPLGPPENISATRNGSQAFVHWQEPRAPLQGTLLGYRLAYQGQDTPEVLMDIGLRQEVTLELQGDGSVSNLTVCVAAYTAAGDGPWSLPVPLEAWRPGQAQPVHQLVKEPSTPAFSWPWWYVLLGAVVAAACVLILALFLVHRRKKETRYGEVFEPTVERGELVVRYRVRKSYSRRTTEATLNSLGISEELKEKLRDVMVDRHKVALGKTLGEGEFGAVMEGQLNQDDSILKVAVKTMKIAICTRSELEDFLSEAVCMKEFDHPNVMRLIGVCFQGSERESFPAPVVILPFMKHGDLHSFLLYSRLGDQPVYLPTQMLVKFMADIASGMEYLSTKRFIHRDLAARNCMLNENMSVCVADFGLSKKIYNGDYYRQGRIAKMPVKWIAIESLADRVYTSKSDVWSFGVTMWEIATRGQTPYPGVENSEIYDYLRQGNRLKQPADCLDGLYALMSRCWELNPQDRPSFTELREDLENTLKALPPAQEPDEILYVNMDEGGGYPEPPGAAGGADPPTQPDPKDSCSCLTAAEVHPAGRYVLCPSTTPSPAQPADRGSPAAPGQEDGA
Conditions: Target UFO, Gene Symbol AXL.

The target of a further data set is CENP-E (Homo sapiens, UniProt Q02224). Conditions: Target CENP-E, Gene Symbol CENPE.

SCN2A, sequence (Q99250 whole entry): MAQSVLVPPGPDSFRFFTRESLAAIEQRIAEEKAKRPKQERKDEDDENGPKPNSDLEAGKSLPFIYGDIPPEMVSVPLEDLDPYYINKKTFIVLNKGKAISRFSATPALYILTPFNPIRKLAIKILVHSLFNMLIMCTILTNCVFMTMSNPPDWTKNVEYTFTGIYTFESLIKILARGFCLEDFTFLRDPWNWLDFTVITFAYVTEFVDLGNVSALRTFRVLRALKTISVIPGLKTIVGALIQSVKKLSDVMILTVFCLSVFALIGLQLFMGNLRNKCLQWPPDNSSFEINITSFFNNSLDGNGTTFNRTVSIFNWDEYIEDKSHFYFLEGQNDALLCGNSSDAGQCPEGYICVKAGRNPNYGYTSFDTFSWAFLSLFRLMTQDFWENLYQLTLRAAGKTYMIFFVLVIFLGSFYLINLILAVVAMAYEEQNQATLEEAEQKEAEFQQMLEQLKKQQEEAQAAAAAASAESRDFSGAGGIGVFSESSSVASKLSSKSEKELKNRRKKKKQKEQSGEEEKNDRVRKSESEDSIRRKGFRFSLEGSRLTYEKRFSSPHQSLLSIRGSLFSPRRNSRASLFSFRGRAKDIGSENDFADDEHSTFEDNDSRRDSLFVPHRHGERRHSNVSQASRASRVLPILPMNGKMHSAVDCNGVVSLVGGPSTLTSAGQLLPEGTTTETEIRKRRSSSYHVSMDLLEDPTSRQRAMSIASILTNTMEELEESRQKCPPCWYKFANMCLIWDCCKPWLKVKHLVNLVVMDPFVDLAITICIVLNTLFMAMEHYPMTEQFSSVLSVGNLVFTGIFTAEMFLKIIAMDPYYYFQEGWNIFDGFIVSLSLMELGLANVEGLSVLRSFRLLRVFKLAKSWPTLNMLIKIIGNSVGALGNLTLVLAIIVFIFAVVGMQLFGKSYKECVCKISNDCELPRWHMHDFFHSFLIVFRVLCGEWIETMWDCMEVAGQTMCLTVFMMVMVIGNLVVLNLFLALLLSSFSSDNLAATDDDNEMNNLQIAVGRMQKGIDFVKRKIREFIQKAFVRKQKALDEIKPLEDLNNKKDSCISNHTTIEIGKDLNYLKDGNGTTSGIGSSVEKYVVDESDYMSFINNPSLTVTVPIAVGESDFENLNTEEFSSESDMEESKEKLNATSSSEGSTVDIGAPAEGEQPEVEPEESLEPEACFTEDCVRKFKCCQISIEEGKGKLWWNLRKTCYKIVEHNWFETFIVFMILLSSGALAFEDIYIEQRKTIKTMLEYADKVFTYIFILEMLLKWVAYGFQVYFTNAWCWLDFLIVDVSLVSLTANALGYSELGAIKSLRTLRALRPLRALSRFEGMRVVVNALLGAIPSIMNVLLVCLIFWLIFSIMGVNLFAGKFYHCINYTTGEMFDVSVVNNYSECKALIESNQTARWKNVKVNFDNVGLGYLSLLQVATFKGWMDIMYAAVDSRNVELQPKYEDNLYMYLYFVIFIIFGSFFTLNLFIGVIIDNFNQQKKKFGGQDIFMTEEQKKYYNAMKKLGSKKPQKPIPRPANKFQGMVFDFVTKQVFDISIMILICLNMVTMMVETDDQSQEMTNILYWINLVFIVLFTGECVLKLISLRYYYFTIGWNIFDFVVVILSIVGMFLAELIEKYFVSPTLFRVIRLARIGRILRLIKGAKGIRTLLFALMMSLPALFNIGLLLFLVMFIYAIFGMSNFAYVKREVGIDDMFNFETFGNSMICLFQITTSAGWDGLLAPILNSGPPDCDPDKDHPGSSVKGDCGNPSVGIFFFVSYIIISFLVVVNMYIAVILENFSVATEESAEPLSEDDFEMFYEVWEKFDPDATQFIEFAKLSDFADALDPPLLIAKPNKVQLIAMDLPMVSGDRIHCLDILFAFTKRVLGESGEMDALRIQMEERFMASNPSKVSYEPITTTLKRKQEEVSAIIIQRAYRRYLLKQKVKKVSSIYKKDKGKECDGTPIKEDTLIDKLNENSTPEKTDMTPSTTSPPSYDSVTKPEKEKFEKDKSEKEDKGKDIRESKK
NR2A/NR3A, sequence (Q12879 23-1464, other chains not shown): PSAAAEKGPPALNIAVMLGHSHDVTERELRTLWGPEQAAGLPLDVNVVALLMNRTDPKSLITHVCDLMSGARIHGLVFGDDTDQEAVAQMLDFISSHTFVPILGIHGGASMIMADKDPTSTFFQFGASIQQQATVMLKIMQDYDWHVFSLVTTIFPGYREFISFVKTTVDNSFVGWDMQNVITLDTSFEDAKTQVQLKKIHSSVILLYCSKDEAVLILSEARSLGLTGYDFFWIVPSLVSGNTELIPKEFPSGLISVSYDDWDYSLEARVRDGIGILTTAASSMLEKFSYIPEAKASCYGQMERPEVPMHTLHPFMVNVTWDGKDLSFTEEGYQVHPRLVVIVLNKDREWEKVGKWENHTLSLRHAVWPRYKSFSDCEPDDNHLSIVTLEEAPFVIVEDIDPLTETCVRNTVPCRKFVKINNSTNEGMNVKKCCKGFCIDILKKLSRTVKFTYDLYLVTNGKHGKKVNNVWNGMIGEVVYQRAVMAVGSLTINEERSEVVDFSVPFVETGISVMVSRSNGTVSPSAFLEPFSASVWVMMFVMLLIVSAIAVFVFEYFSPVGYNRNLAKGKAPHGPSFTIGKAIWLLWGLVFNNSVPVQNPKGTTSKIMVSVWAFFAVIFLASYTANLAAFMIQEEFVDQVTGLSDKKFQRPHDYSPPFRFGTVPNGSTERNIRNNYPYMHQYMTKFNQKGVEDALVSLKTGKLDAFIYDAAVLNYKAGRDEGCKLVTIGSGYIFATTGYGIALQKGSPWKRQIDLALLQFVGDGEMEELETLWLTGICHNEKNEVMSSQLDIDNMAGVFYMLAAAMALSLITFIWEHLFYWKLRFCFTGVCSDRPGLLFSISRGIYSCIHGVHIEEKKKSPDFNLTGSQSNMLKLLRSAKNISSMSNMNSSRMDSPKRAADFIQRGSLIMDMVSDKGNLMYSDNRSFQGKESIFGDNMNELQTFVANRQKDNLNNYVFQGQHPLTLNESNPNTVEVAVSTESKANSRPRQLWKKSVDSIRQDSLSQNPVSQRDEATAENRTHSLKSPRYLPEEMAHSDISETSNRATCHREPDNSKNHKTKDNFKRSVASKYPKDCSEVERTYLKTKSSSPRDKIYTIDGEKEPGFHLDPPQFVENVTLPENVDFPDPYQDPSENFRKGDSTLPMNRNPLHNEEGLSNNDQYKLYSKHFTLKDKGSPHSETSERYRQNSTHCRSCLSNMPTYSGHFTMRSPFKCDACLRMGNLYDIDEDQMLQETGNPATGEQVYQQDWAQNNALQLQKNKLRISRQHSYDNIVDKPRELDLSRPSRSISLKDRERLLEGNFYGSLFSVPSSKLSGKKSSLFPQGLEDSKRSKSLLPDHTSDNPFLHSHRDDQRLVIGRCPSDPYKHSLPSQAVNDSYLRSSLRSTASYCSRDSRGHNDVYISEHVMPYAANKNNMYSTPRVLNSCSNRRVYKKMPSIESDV
NR2A, sequence (Q12879 23-1464, other chains not shown): as above

With Nesiritide, the Effect result on Guanylatecyclase A(NPR1) is reported as “Activation”.

Take `CC12CC3CC(C)(C1)CC(N)(C3)C2` [Memantine]: the Effect result is on record as “Inhibition” at NR2A/NR3A (Target NR2A/NR3A, Gene Symbol GRIN2A) and “Inhibition” at NR2A (Target NR2A, Gene Symbol GRIN2A).

`CN1CCN(c2ncc(-c3cc(Cl)cc(Cl)c3Cl)c(N)n2)CC1` [Sipatrigine]: the Effect result on SCN2A was “Inhibition”.

Turning to `C[C@@H]1CN(C(=O)CN2CC(C)(C)OC[C@H]2C(=O)Nc2cc(Cl)cc3c2[nH]c2cnccc23)C[C@H](C)O1` [MLN0415], the Effect entry at IKK-beta was “Inhibition”.

For the molecule `COc1cc(O)c(CC=C(C)C)c(O)c1C(=O)/C=C/c1ccc(O)cc1` [Xanthohumol], the Effect result at IKK-beta was “Inhibition”.

As for `COc1cc2c(Oc3ccc(NC(=O)C4(C(=O)Nc5ccc(F)cc5)CC4)cc3F)ccnc2cc1OCCCN1CCOCC1` [Foretinib], the Effect result on UFO was “Inhibition”.

On to `NC1=N[C@H](O)[C@H]2[C@H]3O[C@]4(O)O[C@@H]([C@@H](O)[C@@]2(N1)[C@@H]4O)[C@]3(O)CO` [Tetrodotoxin], for which, on SCN2A, the Effect result is listed as “Inhibition”.

With `O=[N+]([O-])O[C@H]1CO[C@H]2[C@@H]1OC[C@H]2O[N+](=O)[O-]` [Isosorbide dinitrate], the Effect result at Guanylatecyclase A(NPR1) was “Inhibition”.

Regarding `CNC1(c2ccccc2Cl)CCCCC1=O` (stereo not drawn) [Ketamine], the Effect entry at NR2A/NR3A and at NR2A was “Inhibition” throughout.

For the molecule `CC(C)Oc1ccc(C(=O)N[C@H](CNC(=O)CN(C)C)Cc2ccc(-c3cn4cccc([C@H](C)O)c4n3)cc2)cc1Cl` [GSK-923295], on CENP-E, the Effect entry is given as “Inhibition”.
